Values of other authors, collected in patent US20080241240A1, “COMBINED PHARMACEUTICAL FORMULATION WITH CONTROLLED-RELEASE COMPRISING DIHYDROPYRIDINE CALCIUM CHANNEL BLOCKERS AND HMG-COA REDUCTASE INHIBITORS” (HANALL Pharmaceutical Co., Ltd., priority 2006, published 2008).

Details: orally administered as single pill

remaining, present in blood: 60%
Compound: CCOC(=O)C1=C(COCCN)NC(C)=C(C(=O)OC)C1c1ccccc1Cl (stereo not shown) [Amlodipine, 3-ethyl-5-methyl-2-(2-aminoethoxymethyl)-4-(2-chlorophenyl)-1,4-dihydro-6-methyl-3,5-pyridinedicarboxylate]
